Data as given in the supplement of paper PMC10307832.

Tests used:
Experiment in all cases: relative viability (nuclei count vs DMSO), 5 days (fraction); higher = more cells survive
[1] = compound: CC(C)C[C@@H](C(=O)N[C@H](C(=O)OC1CCCC1)c1ccccc1)[C@H](O)C(=O)NO [Tosedostat] + Cc1cc(Nc2cc(N3CCN(C)CC3)nc(Sc3ccc(NC(=O)C4CC4)cc3)n2)n[nH]1 [Tozasertib] (partner 0.1 µM)
Procedure, shortened: (§1)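 Lung cancer cell lines were pin-tool dosed in 1536-well plates on the day after seeding, with either a lone drug or a fixed anchor-drug dose plus five library-drug doses (not always all listed) in √10 steps. Nuclei were counted on 4× images after 5 days. Relative viability is the ratio of treated-well to vehicle-well nuclei counts, with each value a median of duplicate plates.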

[2] = compound: CC(C)C[C@@H](C(=O)N[C@H](C(=O)OC1CCCC1)c1ccccc1)[C@H](O)C(=O)NO [Tosedostat] + CS(=O)(=O)N1CCN(Cc2cc3nc(-c4cccc5[nH]ncc45)nc(N4CCOCC4)c3s2)CC1 [Pictilisib] (partner 1 µM)
Procedure, shortened: as §1

[3] = compound: CC(C)C[C@@H](C(=O)N[C@H](C(=O)OC1CCCC1)c1ccccc1)[C@H](O)C(=O)NO [Tosedostat] + C[C@]1(O)C[C@@H](c2nc(-c3ccc4ccc(-c5ccccc5)nc4c3)c3c(N)nccn32)C1 [Linsitinib] (partner 1 µM)
Procedure, shortened: as §1

[4] = compound: CC(C)C[C@@H](C(=O)N[C@H](C(=O)OC1CCCC1)c1ccccc1)[C@H](O)C(=O)NO [Tosedostat] + COc1cccc2cc(-c3nc([C@H]4CC[C@H](C(=O)O)CC4)n4ncnc(N)c34)[nH]c12 [OSI-027] (partner 0.5 µM)
Procedure, shortened: as §1

| Cell Line | relative viability ([1]; first compound 0.02 µM) | relative viability ([1]; first compound 0.06325 µM) | relative viability ([1]; first compound 0.2 µM) | relative viability ([1]; first compound 0.6325 µM) | relative viability ([1]; first compound 2 µM) | relative viability ([2]; first compound 0.02 µM) | relative viability ([2]; first compound 0.06325 µM) | relative viability ([2]; first compound 0.2 µM) | relative viability ([2]; first compound 0.6325 µM) | relative viability ([2]; first compound 2 µM) | relative viability ([3]; first compound 0.02 µM) | relative viability ([3]; first compound 0.06325 µM) | relative viability ([3]; first compound 0.2 µM) | relative viability ([3]; first compound 0.6325 µM) | relative viability ([3]; first compound 2 µM) | relative viability ([4]; first compound 0.02 µM) | relative viability ([4]; first compound 0.06325 µM) | relative viability ([4]; first compound 0.2 µM) | relative viability ([4]; first compound 0.6325 µM) | relative viability ([4]; first compound 2 µM) |
| --- | --- | --- | --- | --- | --- | --- | --- | --- | --- | --- | --- | --- | --- | --- | --- | --- | --- | --- | --- | --- |
| NCI-H1437 | 0.403 | 0.395 | 0.389 | 0.337 | 0.166 | 0.407 | 0.448 | 0.277 | 0.232 | 0.256 | 1.12 | 1.03 | 1 | 0.752 | 0.66 | 0.977 | 0.969 | 0.846 | 0.828 | 0.805 |
| NCI-H1651 | 0.726 | 0.645 | 0.637 | 0.678 | 0.554 | 0.729 | 0.64 | 0.503 | 0.55 | 0.451 | 0.996 | 0.963 | 1.11 | 0.875 | 0.863 | 0.747 | 0.801 | 0.62 | 0.708 | 0.598 |
| NCI-H1666 | 0.639 | 0.711 | 0.541 | 0.726 | 0.623 | 0.603 | 0.404 | 0.5 | 0.367 | 0.291 | 0.864 | 0.815 | 0.805 | 0.818 | 0.989 | 0.839 | 0.856 | 0.822 | 0.835 | 0.845 |
| NCI-H1734 | 0.24 | 0.242 | 0.278 | 0.229 | 0.208 | 0.471 | 0.468 | 0.444 | 0.459 | 0.433 | 0.902 | 0.989 | 0.867 | 0.913 | 0.827 | 0.593 | 0.669 | 0.64 | 0.571 | 0.564 |
| NCI-H1755 | 0.665 | 0.578 | 0.477 | 0.386 | 0.319 | 0.461 | 0.489 | 0.38 | 0.376 | 0.276 | 0.942 | 1.02 | 0.985 | 0.965 | 0.939 | 0.743 | 0.731 | 0.642 | 0.674 | 0.463 |
| NCI-H1793 | 0.289 | 0.386 | 0.295 | 0.31 | 0.289 | 0.484 | 0.31 | 0.507 | 0.403 | 0.329 | 0.678 | 0.984 | 0.711 | 0.641 | 0.873 | 0.264 | 0.271 | 0.293 | 0.258 | 0.24 |
| NCI-H1915 | 0.473 | 0.432 | 0.492 | 0.352 | 0.289 | 1.24 | 0.955 | 1 | 0.815 | 0.838 | 1.16 | 1.11 | 1.11 | 1.1 | 0.961 | 0.659 | 0.614 | 0.643 | 0.585 | 0.532 |
| NCI-H1944 | 0.244 | 0.244 | 0.23 | 0.256 | 0.22 | 0.368 | 0.37 | 0.363 | 0.352 | 0.356 | 1.17 | 1.14 | 1.28 | 1.12 | 1.02 | 0.424 | 0.401 | 0.422 | 0.381 | 0.38 |
| NCI-H1975 | 0.955 | 0.749 | 0.916 | 0.575 | 0.471 | 0.28 | 0.311 | 0.252 | 0.25 | 0.241 | 0.958 | 0.988 | 0.939 | 0.754 | 0.769 | 0.822 | 0.743 | 0.708 | 0.552 | 0.424 |
| NCI-H1993 | 0.631 | 0.535 | 0.56 | 0.588 | 0.493 | 0.818 | 0.863 | 1.01 | 0.84 | 0.688 | 0.669 | 0.698 | 0.742 | 0.703 | 0.629 | 0.555 | 0.476 | 0.564 | 0.548 | 0.442 |
| NCI-H2009 | 0.821 | 0.765 | 0.697 | 0.647 | 0.607 | 1.14 | 0.841 | 0.682 | 0.732 | 0.524 | 1.2 | 1.12 | 1.17 | 0.881 | 1.02 | 0.696 | 0.605 | 0.498 | 0.4 | 0.367 |
| NCI-H2023 | 0.378 | 0.319 | 0.35 | 0.291 | 0.169 | 0.247 | 0.233 | 0.251 | 0.139 | 0.198 | 0.659 | 0.619 | 0.594 | 0.65 | 0.587 | 0.431 | 0.383 | 0.328 | 0.251 | 0.231 |
| NCI-H2085 | 0.695 | 0.695 | 0.784 | 0.909 | 0.838 | 0.445 | 0.518 | 0.512 | 0.593 | 0.481 | 0.935 | 0.889 | 0.724 | 0.838 | 0.836 | 0.555 | 0.797 | 0.704 | 0.699 | 0.673 |
| NCI-H2087 | 0.301 | 0.284 | 0.277 | 0.108 | 0.081 | 1.09 | 0.791 | 0.946 | 0.529 | 0.684 | 1 | 0.969 | 0.951 | 1 | 0.886 | 0.664 | 0.497 | 0.487 | 0.543 | 0.559 |
| NCI-H2126 | 0.829 | 0.853 | 0.852 | 0.789 | 0.618 | 0.506 | 0.533 | 0.513 | 0.437 | 0.472 | 0.586 | 0.682 | 0.778 | 0.677 | 0.623 | 0.714 | 0.786 | 0.622 | 0.614 | 0.583 |
| NCI-H2228 | 0.375 | 0.286 | 0.216 | 0.101 | 0.0875 | 0.438 | 0.492 | 0.347 | 0.354 | 0.217 | 0.792 | 0.63 | 0.686 | 0.612 | 0.525 | 0.728 | 0.574 | 0.571 | 0.387 | 0.363 |
